This experiment concerns the target T1, V600E full-length B-Raf (Homo sapiens, UniProt P15056, V600E).
T1 construct: made in house; host or cells: Sf9 insect cells (baculovirus)
Put plainly: B-Raf IC50 assay: incorporation of radio labeled phosphate from [γ-33P]ATP into FSBA-modified wild-type MEK. It counts as biochemical. From the text:
Determining the activity of Raf in the sample is possible by a number of direct and indirect detection methods (US 2004/0082014). Activity of human recombinant B-Raf protein may be assessed in vitro by assay of the incorporation of radio labeled phosphate to recombinant MAP kinase (MEK), a known physiologic substrate of B-Raf, according to US 2004/0127496 and WO 03/022840. The activity/inhibition of V600E full-length B-Raf was estimated by measuring the incorporation of radio labeled phosphate from [γ-^33]ATP into FSBA-modified wild-type MEK (see Biological Example 1).
Activity of human recombinant B-Raf protein may be assessed in vitro by assay of the incorporation of radio labeled phosphate to recombinant MAP kinase (MEK), a known physiologic substrate of B-Raf, according to US 2004/0127496 and WO 03/022840. Catalytically active human recombinant B-Raf protein is obtained by purification from sf9 insect cells infected with a human B-Raf recombinant baculovirus expression vector.
The activity/inhibition of V600E full-length B-Raf was estimated by measuring the incorporation of radio labeled phosphate from [γ-^33]ATP into FSBA-modified wild-type MEK. The 30-μL, assay mixtures contained 25 mM Na Pipes, pH 7.2, 100 mM KCl, 10 mM MgCl2, 5 mM β-glycerophosphate, 100 μM Na Vanadate, 4 μM ATP, 500 nCi [γ-^33P]ATP, 1 μM FSBA-MEK and 20 nM V600E full-length B-Raf. Incubations were carried out at 22° C. in a Costar 3365 plate (Corning). Prior to the assay, the B-Raf and FSBA-MEK were preincubated together in assay buffer at 1.5× (20 μL of 30 nM and 1.5 μM, respectively) for 15 minutes, and the assay was initiated by the addition of 10 μL of […]. Following the 60-minute incubation, the assay mixtures were quenched by the addition of 100 μL of 25% TCA, the plate was mixed on a rotary shaker for 1 minute, and the product was captured on a Perkin-Elmer GF/B filter plate using a Tomtec Mach III Harvester. After sealing the bottom of the plate, 35 μL of Bio-Safe II (Research Products International) scintillation cocktail were added to each well and the plate was top-sealed and counted in a Topcount NXT (Packard).

Where [1] appears, read: 4 μM ATP, 60-minute incubation, representative data of multiple tests.

T1 sequence (P15056 whole entry V600E): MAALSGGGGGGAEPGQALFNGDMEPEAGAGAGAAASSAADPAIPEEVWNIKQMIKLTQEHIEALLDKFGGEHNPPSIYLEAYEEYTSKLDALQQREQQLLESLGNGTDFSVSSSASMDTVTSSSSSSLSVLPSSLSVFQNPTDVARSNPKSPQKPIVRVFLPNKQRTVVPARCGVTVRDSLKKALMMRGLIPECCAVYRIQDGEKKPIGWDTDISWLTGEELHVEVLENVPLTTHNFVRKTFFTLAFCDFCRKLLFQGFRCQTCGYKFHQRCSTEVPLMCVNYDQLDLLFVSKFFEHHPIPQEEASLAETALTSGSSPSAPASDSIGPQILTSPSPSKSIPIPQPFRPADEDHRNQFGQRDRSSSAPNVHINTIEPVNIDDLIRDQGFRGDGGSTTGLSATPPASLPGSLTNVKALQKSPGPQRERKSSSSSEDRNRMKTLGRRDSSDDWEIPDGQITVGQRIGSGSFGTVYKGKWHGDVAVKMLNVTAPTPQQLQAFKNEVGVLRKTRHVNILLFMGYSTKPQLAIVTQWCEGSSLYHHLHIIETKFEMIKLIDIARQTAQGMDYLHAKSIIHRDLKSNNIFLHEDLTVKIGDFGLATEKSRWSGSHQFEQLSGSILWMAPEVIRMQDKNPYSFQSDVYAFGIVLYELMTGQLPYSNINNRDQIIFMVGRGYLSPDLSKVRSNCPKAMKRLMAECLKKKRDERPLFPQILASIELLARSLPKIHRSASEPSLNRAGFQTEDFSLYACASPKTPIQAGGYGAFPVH

Usually IC50 stands for the point on the concentration scale where inhibition reaches its midpoint. Take `COc1n[nH]c2ncc(NC(=O)c3c(F)cc(F)c(OCc4ccccc4)c3F)cc12` [Example 32, 3-(benzyloxy)-2,4,6-trifluoro-N-(3-methoxy-1H-pyrazolo[3,4-b]pyridin-5-yl)benzamide]: the IC50 under setting [1] was found to be 34.9 nM and the IC50 (bound stated) was less than 100 nM.
As to `COc1n[nH]c2ncc(NC(=O)c3c(Cl)ccc(OCc4cccc(CN5CCOCC5)c4)c3F)cc12` [Example 64, 6-chloro-2-fluoro-N-(3-methoxy-1H-pyrazolo[3,4-b]pyridin-5-yl)-3-(3-(morpholinomethyl)benzyloxy)benzamide], the IC50 is 9.29 nM under setting [1] and less than 100 nM (bound stated).
The like results for `COc1n[nH]c2ncc(NC(=O)c3cc(OCc4ccccc4)ccc3F)cc12` [Example 2, 5-(benzyloxy)-2-fluoro-N-(3-methoxy-1H-pyrazolo[3,4-b]pyridin-5-yl)benzamide] were, in that order, 55.8 nM and less than 100 nM.
The like results for `O=C(Nc1cnc2[nH]nc(OCCO)c2c1)c1c(Cl)ccc(OCc2ccccc2)c1F` [Example 15, 3-(benzyloxy)-6-chloro-2-fluoro-N-(3-(2-hydroxyethoxy)-1H-pyrazolo[3,4-b]pyridine-5-yl)benzamide] were, in that order, 2.63 nM and less than 100 nM.
The like results for `COc1n[nH]c2ncc(NC(=O)c3c(Cl)ccc(OCc4ccncc4)c3F)cc12` [Example 39, 6-chloro-2-fluoro-N-(3-methoxy-1H-pyrazolo[3,4-b]pyridin-5-yl)-3-(pyridin-4-ylmethoxy)benzamide] were, in that order, 64.2 nM and less than 100 nM.
In the case of `COc1n[nH]c2ncc(NC(=O)c3c(Cl)ccc(OCc4cccc(Cl)c4)c3F)cc12` [Example 50, 6-chloro-3-(3-chlorobenzyloxy)-2-fluoro-N-(3-methoxy-1H-pyrazolo[3,4-b]pyridin-5-yl)benzamide], the IC50 runs as follows: under setting [1], 1.22 nM; (bound stated) less than 100 nM.
The like results for `CCc1ccc(COc2ccc(Cl)c(C(=O)Nc3cnc4[nH]nc(OC)c4c3)c2F)cc1` [Example 55, 6-chloro-3-(4-ethylbenzyloxy)-2-fluoro-N-(3-methoxy-1H-pyrazolo[3,4-b]pyridin-5-yl)benzamide] were, in that order, 1.47 nM and less than 100 nM.
The like results for `CC(C)Oc1n[nH]c2ncc(NC(=O)c3c(Cl)ccc(OCc4ccccc4)c3F)cc12` [Example 16, 3-(benzyloxy)-6-chloro-2-fluoro-N-(3-isopropoxy-1H-pyrazolo[3,4-b]pyridin-5-yl)benzamide] were, in that order, 1.71 nM and less than 100 nM.
The like results for `COc1n[nH]c2ncc(NC(=O)c3cccc(OCc4ccccc4)c3Cl)cc12` [Example 21, 3-(benzyloxy)-2-chloro-N-(3-methoxy-1H-pyrazolo[3,4-b]pyridin-5-yl)benzamide] were, in that order, 72.4 nM and less than 100 nM.
Consider `COc1n[nH]c2ncc(NC(=O)c3c(Cl)ccc(OCc4ccncn4)c3F)cc12` [Example 40, 6-chloro-2-fluoro-N-(3-methoxy-1H-pyrazolo[3,4-b]pyridin-5-yl)-3-(pyrimidin-4-ylmethoxy)benzamide], for which the IC50 runs as follows: under setting [1], 27 nM; (bound stated) less than 100 nM.
The like results for `COCCOc1n[nH]c2ncc(NC(=O)c3c(Cl)ccc(OCc4ccccc4)c3F)cc12` [Example 13, 3-(benzyloxy)-6-chloro-2-fluoro-N-(3-(2-methoxyethoxy)-1H-pyrazolo[3,4-b]pyridin-5-yl)benzamide] were, in that order, 1.91 nM and less than 100 nM.
The like results for `COc1n[nH]c2ncc(NC(=O)c3c(Cl)ccc(OCc4csc(C)n4)c3F)cc12` [Example 59, 6-chloro-2-fluoro-N-(3-methoxy-1H-pyrazolo[3,4-b]pyridin-5-yl)-3-((2-methylthiazol-4-yl)methoxy)benzamide] were, in that order, 10.6 nM and less than 100 nM.
The like results for `CC1(c2n[nH]c3ncc(NC(=O)c4c(Cl)ccc(OCc5ccccc5)c4F)cc23)CC1` [Example 20, 3-(benzyloxy)-6-chloro-2-fluoro-N-(3-(1-methylcyclopropyl)-1H-pyrazolo[3,4-b]pyridin-5-yl)benzamide] were, in that order, 3.48 nM and less than 100 nM.
With `CCc1n[nH]c2ncc(NC(=O)c3c(Cl)ccc(OCc4ccccc4)c3F)cc12` [Example 6, 3-(benzyloxy)-6-chloro-N-(3-ethyl-1H-pyrazolo[3,4-b]pyridin-5-yl)-2-fluorobenzamide], the IC50 reads like this: under setting [1], 2.52 nM; (bound stated) less than 100 nM.
The like results for `COc1n[nH]c2ncc(NC(=O)c3c(Cl)ccc(OCc4cccnc4)c3F)cc12` [Example 36, 6-chloro-2-fluoro-N-(3-methoxy-1H-pyrazolo[3,4-b]pyridin-5-yl)-3-(pyridin-3-ylmethoxy)benzamide] were, in that order, 37.5 nM and less than 100 nM.
`COc1n[nH]c2ncc(NC(=O)c3c(Cl)ccc(OCc4ccc(Br)cc4)c3F)cc12` [Example 48, 3-(4-bromobenzyloxy)-6-chloro-2-fluoro-N-(3-methoxy-1H-pyrazolo[3,4-b]pyridin-5-yl)benzamide]: the IC50 was 1.68 nM under setting [1] and less than 100 nM (bound stated).
The like results for `COc1n[nH]c2ncc(NC(=O)c3c(Cl)ccc(OCc4ccc(C5CC5)cc4)c3F)cc12` [Example 77, 6-chloro-3-(4-cyclo-propylbenzyloxy)-2-fluoro-N-(3-methoxy-1H-pyrazolo[3,4-b]pyridin-5-yl)benzamide] were, in that order, 0.56 nM and less than 100 nM.
The like results for `COc1n[nH]c2ncc(NC(=O)c3c(Cl)ccc(OCc4ccccc4F)c3F)cc12` [Example 3, 6-chloro-2-fluoro-3-(2-fluorobenzyloxy)-N-(3-methoxy-1H-pyrazolo[3,4-b]pyridin-5-yl)benzamide] were, in that order, 0.44 nM and less than 100 nM.
The like results for `COc1n[nH]c2ncc(NC(=O)c3c(Cl)ccc(OCc4ccc(C(F)(F)F)nc4)c3F)cc12` [Example 43, 6-chloro-2-fluoro-N-(3-methoxy-1H-pyrazolo[3,4-b]pyridin-5-yl)-3-((6-(trifluoromethyl)pyridin-3-yl)methoxy)benzamide] were, in that order, 2.63 nM and less than 100 nM.
On to `CN(C)CCOc1n[nH]c2ncc(NC(=O)c3c(Cl)ccc(OCc4ccccc4)c3F)cc12` [Example 17, 3-(benzyloxy)-6-chloro-N-(3-(2-(dimethylamino)ethoxy)-1H-pyrazolo[3,4-b]pyridin-5-yl)-2-fluorobenzamide], for which the IC50 was 11.1 nM under setting [1] and less than 100 nM (bound stated).
The like results for `COc1n[nH]c2ncc(NC(=O)c3c(F)ccc(OCc4ccccc4)c3F)cc12` [Example 26, 3-(benzyloxy)-2,6-difluoro-N-(3-methoxy-1H-pyrazolo[3,4-b]pyridin-5-yl)benzamide] were, in that order, 2.41 nM and less than 100 nM.
The like results for `COc1n[nH]c2ncc(NC(=O)c3c(Cl)ccc(OCc4ccccc4)c3Cl)cc12` [Example 25, 3-(benzyloxy)-2,6-dichloro-N-(3-methoxy-1H-pyrazolo[3,4-b]pyridin-5-yl)benzamide] were, in that order, 12.3 nM and less than 100 nM.
The like results for `COc1n[nH]c2ncc(NC(=O)c3c(Cl)ccc(OCc4cc(C)on4)c3F)cc12` [Example 61, 6-chloro-2-fluoro-N-(3-methoxy-1H-pyrazolo[3,4-b]pyridin-5-yl)-3-((5-methylisoxazol-3-yl)methoxy)benzamide] were, in that order, 80.1 nM and less than 100 nM.
For the compound `COc1n[nH]c2ncc(NC(=O)c3cc(OCc4ccccn4)ccc3Cl)cc12` [Example 24, 2-chloro-N-(3-methoxy-1H-pyrazolo[3,4-b]pyridin-5-yl)-5-(pyridin-2-ylmethoxy)benzamide], the IC50 is 64.9 nM under setting [1] and less than 100 nM (bound stated).
The like results for `O=C(Nc1cnc2[nH]nc(OCCF)c2c1)c1c(Cl)ccc(OCc2ccccc2)c1F` [Example 18, 3-(benzyloxy)-6-chloro-2-fluoro-N-(3-(2-fluoroethoxy)-1H-pyrazolo[3,4-b]pyridine-5-yl)benzamide] were, in that order, 0.82 nM and less than 100 nM.
The like results for `COc1n[nH]c2ncc(NC(=O)c3c(Cl)ccc(OC(C)c4ccccc4)c3F)cc12` (stereo not drawn) [Example 67, 6-chloro-2-fluoro-N-(3-methoxy-1H-pyrazolo[3,4-b]pyridin-5-yl)-3-(1-phenylethoxy)benzamide] were, in that order, 61 nM and less than 100 nM.
The like results for `COc1n[nH]c2ncc(NC(=O)c3c(Cl)ccc(OCc4ccc(Cl)cn4)c3F)cc12` [Example 45, 6-chloro-3-((5-chloropyridin-2-yl)methoxy)-2-fluoro-N-(3-methoxy-1H-pyrazolo[3,4-b]pyridin-5-yl)benzamide] were, in that order, 0.53 nM and less than 100 nM.

The record behind these values is patent US20120157452A1, “1H-PYRAZOLO[3,4-B] PYRIDINE COMPOUNDS FOR INHIBITING RAF KINASE” (GENENTECH, INC., priority 2009, published 2012).
